US5808137A, “Chalcones and esters thereof with antiproliferative activity in uterus, ovary and breast tumors” (Indena S.p.A., priority 1994, dated 1998)
Read-outs that look alike come from different tables or passages of the source.

Experiments:
[1] = system: estrogen receptors of type II; assay: Binding affinity to estrogen receptors of type II (displacement of labelled estradiol in tumour cells); conditions: for IC50: read-out: IC50 *** Concentration giving a 50% displacement of labelled estradiol (40 nM) from the receptor, labelled estradiol 40 nM; for affinity to estrogen receptors of type II: result in words
Description: (§1) The evaluation of the estrogen receptor binding has been carried out on tumour cells of ovary and other organs. Cells were growth in a monolayer culture on the minimum essential medium added with calf serum and with 200 units/ml of penicillin to maintain the medium sterile. In order to make the tests reproducible, the cells were trypsinated every week and placed on plates at a density of […] and incubated at 37° C. under air atmosphere containing 5% CO2 and humidity. […] After 24 hours the substrate was replaced with fresh substrate and the chalcones dissolved in absolute ethanol were added. […] The treatment described above was repeated at 24 hours time intervals during the 72 hours time of the test. […] At the end of the incubation time, the cells were quickly washed with fresh substrate and incubated for 30 minutes with 1M NaOH. The radioactivity was measured by means of a scintiller and the binding specificity was calculated as the difference between the preparations containing or not diethylstilbestrol. The results are expressed as the number of binding sites per cell, according to conventional methods. The inhibition on the cell proliferation is evaluated by direct count of the cells comparing the growth of the controls versus that of the treated.

[2] = system: OVCA 433 cancer cells; assay: Antiproliferative activity on OVCA 433 cancer cells in vitro (direct cell count); type: cell-based; conditions: read-out: IC50 ** Concentration giving a 50% inhibition on cell proliferation
Description: as §1

[3] = system: uterus, ovary and breast tumour cell lines; assay: Antiproliferative activity on uterus, ovary and breast tumour cell lines; type: cell-based; conditions: result in words
Description: as §1

[4] = target: estrogen receptors of type II; conditions: read-out: apparent affinity dissociation constant KD for estradiol; type II sites, rat uterus; cited from earlier work
[5] = system: human leukemia cells; conditions: result in words; cited from earlier work
[6] = OVCA433, OVCA 433 cancer cells in vitro, 72 hours test

Row | SMILES | IC50 [1] | affinity to estrogen receptors of type II [1] | IC50 [2, 6] | antiproliferative activity on uterus, ovary and breast tumour cell lines [3] | IC50 ([2]; OVCA433, 72 h) | Kd [4] | inhibiting activity on the proliferation of human leukemia cells [5]
1 | CC(C)=CCc1c(O)ccc(C(=O)/C=C/c2ccccc2)c1O [Chalcone S1, Isocordoin] | 1.2 µM | remarkable affinity | 1.2 µM | marked antiproliferative activity |  |  | 
2 | COc1ccc(C(=O)/C=C/c2ccc(O)cc2)c(O)c1CC=C(C)C [Chalcone S2, 4-hydroxyderricin] | 10.6 µM | remarkable affinity | 17 µM | marked antiproliferative activity |  |  | 
3 | COc1ccc(C(=O)/C=C/c2ccccc2O)c(O)c1CC=C(C)C [Chalcone S3, 2-hydroxyderricin] | 18 µM | remarkable affinity | 4.2 µM | marked antiproliferative activity |  |  | 
4 | COc1ccc(C(=O)/C=C/c2cccc(O)c2)c(O)c1CC=C(C)C [Chalcone S4, 3-hydroxyderricin] | 12.1 µM | remarkable affinity | 5 µM | marked antiproliferative activity |  |  | 
5 | O=C(/C=C/c1ccccc1)c1ccc(O)cc1O [Chalcone S5, 2',4'-dihydroxychalcone] | 0.6 µM | remarkable affinity | 2.5 µM | marked antiproliferative activity |  |  | 
6 | O=C(/C=C/c1ccc(O)cc1)c1ccc(O)cc1O [Chalcone S6, 4,2',4'-trihydroxychalcone] | 3.2 µM | remarkable affinity |  | marked antiproliferative activity | 5 µM |  | 
7 | CC(C)=CCOc1ccc(C(=O)/C=C/c2ccccc2)c(O)c1 [Chalcone S7, Cordoin] | 4.2 µM | remarkable affinity | 6 µM | marked antiproliferative activity |  |  | 
8 | CC(C)=CCOc1ccc(C(=O)/C=C/c2ccc(O)cc2)c(O)c1 [Chalcone S8, 4-hydroxycordoin, reference compound] |  | no affinity |  |  |  |  | 
9 | CC(C)=CCOc1ccc(C(=O)CCc2ccccc2)c(O)c1 [Chalcone S9, Dihydrocordoin, reference compound] |  | no affinity |  |  |  |  | 
10 | C[C@]12CC[C@@H]3c4ccc(O)cc4CC[C@H]3[C@@H]1CC[C@@H]2O [estradiol] |  |  |  |  |  | 0.01 to 0.02 µM | 
11 | O=c1c(O)c(-c2ccc(O)c(O)c2)oc2cc(O)cc(O)c12 [quercetin] |  |  |  |  |  |  | some inhibiting activity
